Measurements as given in patent US5550128A, “Enantiomers of gamma methylene 10-deaza aminopterin and process for preparing the same” (priority 1994, dated 1996).

Columns and labels:
[1] = test system: L1210 leukemia; conditions: animals bearing L1210 leukemia; cited from earlier work
[2] = test system: P388 leukemia; conditions: animals bearing P388 leukemia; cited from earlier work
[3] = animals; relative to MTX; cited from earlier work
[4] = test system: Human HCT-8 Ileocecal Xenograft; assay: Antitumor activity by I.V. push, daily × 5, against human HCT-8 ileocecal xenograft; conditions: for CR: Complete Regression / MIR: Maximum inhibitory rate / PR: Partial Regression / TD: Tumor doubling time: i.v. push daily × 5
Source text: [M. G. Nair and Ann Abraham, U.S. Pat. No. 4,996,207 (1991); M. G. Nair, U.S. Pat. No. 5,073,554 (1991 )]. […] [Ann Abraham, M. G. Nair, et al. Advanced in Exp. Med. and Biol. 663-666 (1993)].
MIR: Maximum inhibitory rate. TD: Tumor doubling time.
CR: Complete Regression. PR Partial Regression.
(§1) MWL: Maximum Weight Loss.

[5] = test system: Human HCT-8 Ileocecal Xenograft; assay: Antitumor activity by continuous i.v. infusion (C.I.) × 5d against human HCT-8 ileocecal xenograft; type: in vivo, human (xenograft in nude mice); conditions: C.I. × 5d
Source text: Antitumor Activity of MDAM by C.I. × 5d
against HUMAN HCT-8 Ileocecal Xenograft
MIR: Maximum inhibitory rate.
TD: Tumor doubling time.
CR: Complete Regression.
PR: Partial Regression.
as §1

[6] = molecular target: T1, Recombinant Human Dihydrofolate Reductase (Homo sapiens, UniProt P00374); assay: Inhibition of recombinant human dihydrofolate reductase, spectrophotometric enzyme assay; type: biochemical
T1 sequence (P00374 1-187): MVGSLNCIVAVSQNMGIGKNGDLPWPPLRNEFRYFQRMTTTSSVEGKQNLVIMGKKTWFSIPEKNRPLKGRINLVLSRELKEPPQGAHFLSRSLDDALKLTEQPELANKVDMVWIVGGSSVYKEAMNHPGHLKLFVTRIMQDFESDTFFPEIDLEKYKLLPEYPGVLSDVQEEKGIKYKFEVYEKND
Procedure: Enzyme assay was performed spectrophotometrically in a solution containin
50 μM dihydrofolate, 80 μM NADPH, 0.05 M Tris HCl. 0.01 M
2mercaptoethanol and 0.001 M EDTA at pH 7.4 at 30°. The reaction
Pure human recombinant enzyme was used.

[7] = test system: transport of radiolabeled folinic acid to H35 hepatoma cells; assay: Inhibition of transport of radiolabeled folinic acid to H35 hepatoma cells; type: cell-based; conditions: H35 hepatoma cells; read-out: l50 value, inhibition of transport of radiolabeled folinic acid
Procedure: (§2) Independent, further evidences to the identity of L-MDAM as the biologically active enantiomer of the racemic mixture of D,L-MDAM (previously described as MDAM; Ref, U.S. Pat. No. 4,996,207) was obtained by the following data. […] The cytotoxicity of L-MDAM versus D,L-MDAM was also compared. […] The l50 value for growth inhibition (Gl50) was 39 nM for D,L-MDAM. […] Taken together, these unexpected and novel results establish that the biologically active compound present in the racemic mixture of MDAM is the L-enantiomer described in claim number 1.

[8] = test system: H35 hepatoma cells; assay: Growth inhibition of H35 hepatoma cells in culture; type: cell-based; conditions: H35 hepatoma cells in culture, identical conditions; read-out: l50 value for growth inhibition (Gl50)
Procedure: as §2

[9] = test system: human tumor cell lines in culture; assay: Human Tumor Disease Oriented in vitro screen, panel as a whole; type: cell-based; conditions: relative to methotrexate, or enantiomer comparison
Procedure: Further, by analogy to methotrexate (rheumatrex) L-MDAM should be useful in the treatment of autoimmune diseases such as rheumatoid arthritis and inflammatory diseases such as asthma.
A 48 h continuous drug exposure protocol was used combined with an SR13
protein assay to estimate cell growth or viability.

[10] = single iv push daily for 5 days at the maximum tolerated dose, nude mice

SMILES: C=C(CC(NC(=O)c1ccc(C(CC)Cc2cnc3nc(N)nc(N)c3n2)cc1)C(=O)O)C(=O)O (centres unmarked) [MEDAM, γ-methylene-10-ethyl-10-deazaaminopterin]
- in vivo antitumor activity relative to MTX [1]: superior in vivo antitumor activity relative to the polyglutamylatable MTX
- in vivo antitumor activity relative to MTX [2]: superior in vivo antitumor activity relative to the polyglutamylatable MTX
- tolerability [3]: tolerated by animals at higher doses

SMILES: C=C(CC(NC(=O)c1ccc(CCc2cnc3nc(N)nc(N)c3n2)cc1)C(=O)O)C(=O)O (racemic) [D,L-MDAM, γ-methylene-10-deazaaminopterin]
- CR: Complete Regression ([4]; 30 mg/kg): 0%
- MIR: Maximum inhibitory rate ([4]; 30 mg/kg): 58.8 ± 9.2%
- PR: Partial Regression ([4]; 30 mg/kg): 0%
- TD: Tumor doubling time ([4]; 30 mg/kg): 6.2 ± 0.9 days
- CR: Complete Regression ([4]; 40 mg/kg): 25%
- MIR: Maximum inhibitory rate ([4]; 40 mg/kg): 79.2 ± 7.5%
- PR: Partial Regression ([4]; 40 mg/kg): 25%
- TD: Tumor doubling time ([4]; 40 mg/kg): 7.1 ± 0.5 days
- CR: Complete Regression ([4]; 50 mg/kg): 25%
- MIR: Maximum inhibitory rate ([4]; 50 mg/kg): 79.2 ± 6.2%
- PR: Partial Regression ([4]; 50 mg/kg): 50%
- TD: Tumor doubling time ([4]; 50 mg/kg): 8.4 ± 0.4 days
- antitumor response [4, 10]: 75%
- complete tumor regression [4, 10]: 25%
- CR: Complete Regression ([5]; 0.5 mg/kg): 0%
- MIR: Maximum inhibitory rate ([5]; 0.5 mg/kg): 49.8 ± 8.2%
- PR: Partial Regression ([5]; 0.5 mg/kg): 0%
- TD: Tumor doubling time ([5]; 0.5 mg/kg): 5.3 ± 0.9 days
- CR: Complete Regression ([5]; 1 mg/kg): 0%
- MIR: Maximum inhibitory rate ([5]; 1 mg/kg): 56.4 ± 7.8%
- PR: Partial Regression ([5]; 1 mg/kg): 0%
- TD: Tumor doubling time ([5]; 1 mg/kg): 6.0 ± 0.7 days
- CR: Complete Regression ([5]; 2 mg/kg(/day)): 38%
- PR: Partial Regression ([5]; 2 mg/kg(/day)): 38%
- MIR: Maximum inhibitory rate ([5]; 2 mg/kg): 81.7 ± 7.2%
- TD: Tumor doubling time ([5]; 2 mg/kg): 12.4 ± 5.8 days
- IC50 ([6]; 50 μM dihydrofolate, 80 μM NADPH, pH 7.4, 30°): 44 nM
- IC50 Compound/IC50 MTX ([6]; ratio to MTX): 2.58
- IC50 [7]: 5500 nM
- IC50 [8]: 39 nM
- activity/potency in inhibiting growth of human tumor cell lines (in words) [9]: more potent activity relative to methotrexate in several tumor cell lines
- activity/potency in inhibiting growth of human tumor cell lines (in words) ([9]; listed as MDAM): equivalent or greater potency than methotrexate
- in vivo antitumor activity relative to MTX [1]: superior in vivo antitumor activity relative to the polyglutamylatable MTX
- in vivo antitumor activity relative to MTX [2]: superior in vivo antitumor activity relative to the polyglutamylatable MTX
- tolerability [3]: tolerated by animals at higher doses
